Laboratory results: article PMC4643019, “Imaging Sites of Inhibition of Proteolysis in Pathomimetic Human Breast Cancer Cultures by Light-Activated Ruthenium Compound” (PLoS ONE, 2015)
Entries after “also recorded” stand apart in the source; their conditions may differ. Like-named read-outs stand apart in the source and are kept apart here. One block for each molecule: values may come before it.

Columns and labels:
[1] = Stability in the dark, determined spectrophotometrically (ln A vs. t); type: physicochemical
Excerpt: This was expected because cis-[Ru(bpy)2Cl2] was used as a racemic mixture of Δ- and Λ stereoisomers. […] The electronic absorption spectrum of 2 is highly consistent with other dications of the general formula cis-[Ru(bpy)2(RCN)2]^2+, where RCN is MeCN,^130 5-cyanouracil,^124 and protease inhibitors structurally related to 1 [17–18]. Data for 2 in water containing 2% acetone show a maximum at 420 nm (ε = 10,360 M^-1cm^-1) assigned to a singlet metal-to-ligand charge transfer (^1MLCT) transition.

[2] = system: Hs578T 3D MAME cultures; assay: Live-cell proteolysis assay (DQ-collagen IV) in 3D MAME cultures, Hs578T; type: cell-based, human
Protocol: (§1) Proteolytic cleavage of DQ-collagen IV substrate (Invitrogen, Carlsbad, CA, USA) by live TNBC cells was imaged in real time and quantified as previously described. Briefly, glass coverslips were coated with 50 μl of 16.4 mg/ml Cultrex^TM containing 25 μg/ml DQ-collagen IV and incubated for 15 min at 37°C to solidify. TNBC cells (1.0 x 10^4) were seeded onto coated glass coverslips and incubated for 60 min. Medium containing 2% Cultrex^TM was added to the cells. The sample was added every 48 h. […] Where indicated, assays were performed in the presence of CA074 and CA074Me (5 μM each) (Peptides International, Louisville, KY, USA), compound 1 or compound 2. For experiments with the caged inhibitor, cells were exposed to dark (no irradiation) and light (irradiation at 250 W, 395–750 nm) conditions for 45 min with a tungsten halogen lamp and H2O filter on separate plates. After 4 days of culture, optical sections through the entire depth of the 3D structures were acquired on a confocal microscope and, reconstructed in 3D using Volocity software. At the time of imaging cells were stained with CellTracker Orange and nuclei with Hoechst 33342. Volocity software was used to determine cellular boundaries in each confocal slice and generate a “cytoplasmic mask” as well as to count nuclei. The intensity of DQ-collagen IV degradation fragments per cell was quantified in the entire 3D volume. Degradation fragments were segmented into those present inside or surrounding the cells by using image arithmetic as we have previously described in detail.

[3] = system: Hs578T 3D MAME cultures; assay: Cell viability (Live/Dead) assay, Hs578T 3D MAME cultures; type: cell-based; conditions: in the dark or the light, 4 days
Protocol: (§2) Three-dimensional cultures of TNBC cells were established, grown and treated with compound 2 as described above. After 4 days, a cell viability assay was performed to assess the cytotoxic effects of compound 2. The assay has two components: Calcein AM that fluoresces green when cleaved by intracellular esterases thereby labeling live cells and Ethidium Homodimer-1 that fluoresces red when incorporated in the DNA of dead cells. A solution of 4 μM Ethidium Homodimer-1 and 2 μM Calcein AM was prepared in sterile PBS. Cultures were incubated for 30 minutes at 37°C, washed once with warm PBS and replenished with warm MEGM media for live cell imaging. The samples were then imaged at 10X magnification using a Zeiss 510 META confocal microscope. Tiled 16-panel images and z-stacks through the depth of structures were captured. The images were processed to show top views using Volocity software.

[4] = system: MDA-MB-231 3D MAME cultures; assay: Cell viability (Live/Dead) assay, MDA-MB-231 3D MAME cultures; type: cell-based; conditions: in the dark or the light, 4 days
Protocol: as §2

[5] = Photoinduced ligand exchange quantum yield; type: physicochemical
Protocol: Electronic absorption spectra were measured with a Hewlett-Packard 8453 diode array spectrophotometer. The ligand exchange quantum yield experiments were performed with a 150 W Xe arc lamp (USHIO) in a Milliarc lamp housing unit with an LPS-220 power supply and an LPS-221 igniter (PTI). A bandpass filter (Thorlabs) and long-pass filter (CVI Melles Griot) were used to select the appropriate irradiation wavelengths.
The photolysis experiments were performed in H2O with 2% acetone and in an acetone solution containing 0.25 M tetrabutylammonium, and the chloride (TBACl) in a 1 × 1 cm quartz cuvette, and the irradiation wavelengths were selected with a 395 nm long-pass filter. The photon flux of the arc lamp with a 335 nm long-pass filter and a 400 nm bandpass filter was determined to be 4.30 ± 0.25 × 10^−8 mol photons/min by ferrioxalate actinometry as previously described in detail. The quantum yields (Φ) for ligand dissociation of 2 were determined in each of the solvent systems in a 1 × 1 cm quartz cuvette. The decrease in the MLCT absorption maximum of the reactant with ε = 10,360 M^–1cm^–1 at 412 nm as a function of time was monitored at early irradiation times to calculate the rate of moles of reactant converted to intermediate, I. The increase of the MLCT absorption maximum of the product at 490 nm (ε = 9,300 M^–1cm^–1) was monitored at irradiation times after the formation of the intermediate to determine the rate of moles of product P formed. These rates along with the photon flux were used to calculate the quantum yields for the first and second steps, ΦR→I and ΦI→P, respectively.

[6] = target: T1, CTSB activity in MDA-MB-231 cell lysates (Homo sapiens, UniProt P07858); assay: Inhibition of cellular cathepsin B activity in MDA-MB-231 cell lysates (Z-Arg-Arg-AMC); type: biochemical; conditions: for IC50: MDA-MB-231 lysate
T1 construct: endogenous in cells; host or cells: MDA-MB-231 (ATCC) cell lysate
Protocol: (§3) TNBC cell lines were originally purchased from American Type Culture Collection (Rockville, MD, USA) and authenticated using the STR PowerPlex 16 system (Promega). Cells were cultured in basal medium supplemented with 10% fetal bovine serum (MDA-MB-231, DMEM; Hs578T, DMEM + 10 μg/ml bovine insulin). To prepare cell lysates, cells were grown on 100 mm dishes to ~80% confluency, washed twice with PBS (phosphate buffered saline), scraped and lysed in SME buffer (250 mM sucrose, 25 mM MES, 1 mM EDTA, pH 6.5, and 0.1% Triton X-100) and then sonicated on ice three times for 10 sec each. CTSB activity was measured as previously described. Briefly, 50 μl of cell lysate was incubated with 300 μl of activator buffer (5 mM EDTA, 10 mM DTT (pH 5.2) at 37°C during 15 min. The sample (1 μl) was added to 100 μl of the activator buffer containing cell lysate and the reaction mixtures were conducted during 45 min under dark (no irradiation) and light (irradiation at 250 W, 395–750 nm) conditions for 45 min with a tungsten halogen lamp and H2O filter on separate plates as described above. The experiments were carried out in triplicate (on 96-well flat bottom black plates) at pH 6.0.

[7] = target: T2, CTSB activity in Hs578T cell lysates (Homo sapiens, UniProt P07858); assay: Inhibition of cellular cathepsin B activity in Hs578T cell lysates (Z-Arg-Arg-AMC); type: biochemical; conditions: for IC50: Hs578T lysate
T2 construct: endogenous in cells; host or cells: Hs578T (ATCC) cell lysate
Protocol: as §3

[8] = target: T3, CTSB purified from human liver (Homo sapiens, UniProt P07858); assay: Cathepsin B activity assay with purified enzyme (Z-Arg-Arg-AMC); type: biochemical; conditions: for IC50: CTSB 10 nM, substrate 150 μM
T3 construct: CTSB purified from human liver was purchased from Athens Research & Technology; purchased Athens Research & Technology (Athens, GA, USA); host or cells: human liver (tissue-purified)
Protocol: CTSB purified from human liver was purchased from Athens Research & Technology (Athens, GA, USA). The enzyme activity was determined from kinetic measurements performed by fluorimetric detection of the hydrolysis product AMC at 37°C for 30 min at one-minute intervals using a Tecan SpectraFluor Plus plate-reader. The excitation and emission wavelengths were 360 and 485 nm, respectively. The fluorescent substrate Z-Arg-Arg-AMC (Bachem, Torrance, CA, USA) was used at a final concentration of 150 μM.
The enzyme was activated for 15 minutes with activator buffer (100 μl) containing 5 mM EDTA, 10 mM DTT (pH 5.2) at 37°C. The sample (1 μl) was added and the reaction mixtures were conducted during 45 min under dark (no irradiation) and light (irradiation at 250 W, 395–750 nm) conditions with a tungsten halogen lamp and H2O filter on separate plates. For the experiments under dark conditions, room lights were off and in addition the plate was covered with aluminum foil (light protection); the other plate was exposed to visible light for the same time period. The irradiation wavelength was selected by placing a 395 long-pass filter between the lamp and the sample, along with a 10 cm water cell to absorb infrared light. After photolysis, the reaction was initiated by addition of 200 μl of assay buffer (0.6 mM CaCl2, 0.6 mM MgCl2, 25 mM piperazin-N-N‘-bis[2-ethanosulfonic acid] (disodium salt)), pH 7.3 containing 150 μM Z-Arg-Arg-AMC substrate solution. Enzyme concentration was 10 nM. The experiments were carried out in triplicate in 96-well flat bottom black plates at pH 6.0. Enzyme activities are expressed as a percentage, with 100% equal to activity in the absence of inhibitor. IC50 values were determined by plotting percent activity vs. log (inhibitor concentration).

[9] = system: MDA-MB-231 3D MAME cultures; assay: Live-cell proteolysis assay (DQ-collagen IV) in 3D MAME cultures, MDA-MB-231; type: cell-based, human
Protocol: as §1

[10] = not told; cited from earlier work
[11] = system: cathepsin L; parameters: method as in PMID 12437121; conditions: cited from earlier work
[12] = Solubility (statement); type: physicochemical
[13] = system: recombinant human CTSB expressed in baculovirus; parameters: method as in PMID 11741472; conditions: cited from earlier work
[14] = acetone solution containing 0.25 M TBACl
[15] = water (2% acetone), λirr = 400 nm
[16] = dark (no irradiation) 45 min, read-out: IC50 (dark)
[17] = light λirr = 395–750 nm, 45 min, read-out: IC50 (light)
[18] = uncaged compound 1, read-out: IC50

Structure (SMILES): Cc1cccc(CC(NC(=O)c2ccc(Cl)c(Cl)c2)C(=O)NCC#N)c1.Cc1cccc(CC(NC(=O)c2ccc(Cl)c(Cl)c2)C(=O)NCC#N)c1.F[B-](F)(F)F.F[B-](F)(F)F.[Ru+2].c1ccc(-c2ccccn2)nc1.c1ccc(-c2ccccn2)nc1 (mixture of isomers) [compound 2, Δ- and Λ-cis [Ru(bpy)2(1)2](BF4)2]
kobs, rate constant for decomposition in the dark ([1]; DMSO, 293 ± 2 K): 1.6 ± 0.1 × 10^−7 s^-1
kobs, rate constant for decomposition in the dark ([1]; phosphate buffered saline, pH 6.5, 293 ± 2 K): 1.2 ± 0.1 × 10^−6 s^-1
degradation of DQ-collagen IV ([2]; 1 μM, exposed to visible light, 4 days): significantly reduced
inhibition of proteolysis in the dark ([2]; higher concentrations than 1 μM, dark (data not shown)): significant inhibition of proteolysis
toxicity by cell viability assay [3]: did not observe any toxicity
toxicity by cell viability assay [4]: did not observe any toxicity
quantum yield of ligand exchange, first step ΦR→I [5, 14]: 0.056(9)
quantum yield of ligand exchange, second step ΦI→P [5, 14]: 0.032
quantum yield of ligand exchange, first step ΦR→I [5, 15]: 0.026(4)
quantum yield of ligand exchange, second step ΦI→P [5, 15]: 0.0045(9)
dark/light ratio ([6]; MDA-MB-231 cell lysates): 79.6
IC50 [6, 16]: 126 µM
IC50 [6, 17]: 1.58 µM
dark/light ratio ([7]; Hs578T cell lysates): 12.6
IC50 [7, 16]: 11.2 µM
IC50 [7, 17]: 0.89 µM
IC50 [8, 16]: 3.4 µM
IC50 ([8]; light λirr = 395–750 nm, 45 min, 250 W, read-out: IC50 (light)): 0.28 µM
dark/light IC50 ratio ([8]; purified CTSB): 12
degradation of DQ-collagen IV ([9]; MDA-MB-231, 1 μM, exposed to visible light, 4 days): significantly reduced
inhibition of proteolysis in the dark ([9]; MDA-MB-231, higher concentrations than 1 μM, dark (data not shown)): significant inhibition of proteolysis

Structure (SMILES): CCCNC(=O)[C@H]1O[C@@H]1C(=O)N[C@H](C(=O)N1CCC[C@H]1C(=O)OC)[C@@H](C)CC [CA074Me]
cell permeability [10]: cell permeable
inhibition of cathepsin L [11]: inhibits

Structure (SMILES): CCCNC(=O)[C@H]1O[C@@H]1C(=O)N[C@H](C(=O)N1CCC[C@H]1C(=O)O)[C@@H](C)CC [CA074]
cell permeability [10]: non-cell permeable
inhibition of cathepsin L [11]: not

solubility in H2O [12]: low solubility
IC50 [6, 18]: 1.54 µM
IC50 [7, 18]: 0.91 µM
IC50 [8, 18]: 0.33 µM
Structure (SMILES): Cc1cccc(C[C@H](NC(=O)c2ccc(Cl)c(Cl)c2)C(=O)NCC#N)c1 [compound 1, (S)-3,4-dichloro-N-(1-((cyanomethyl)amino)-1-oxo-3-(m-tolyl)propan-2-yl)benzamide]
total degradation of DQ-collagen IV ([2]; 4 days of culture, concentration of 1 not given): significantly less degradation of DQ-collagen IV; also recorded: significant reductions
pericellular proteolysis (DQ-collagen IV) ([2]; 4 days, concentration of 1 not given): significant reductions
inhibition of recombinant human CTSB [13]: potent, selective and reversible inhibitor
total degradation of DQ-collagen IV ([9]; MDA-MB-231, 4 days of culture, concentration of 1 not given): significantly less degradation of DQ-collagen IV; also recorded: significant reductions
pericellular proteolysis (DQ-collagen IV) ([9]; MDA-MB-231, 4 days, concentration of 1 not given): significant reductions

Structure (SMILES): CC#N.CC#N.F[P-](F)(F)(F)(F)F.F[P-](F)(F)(F)(F)F.[Ru+2].c1ccc(-c2ccccn2)nc1.c1ccc(-c2ccccn2)nc1 [compound 3, cis-[Ru(bpy)2(MeCN)2](PF6)2, reference compound]
inhibition of proteolysis (DQ-collagen IV) ([2]; 1 μM, light vs. dark conditions, 4 days): did not inhibit proteolysis
inhibition of proteolysis (DQ-collagen IV) ([9]; MDA-MB-231, 1 μM, light vs. dark conditions, 4 days): did not inhibit proteolysis
